Counter-ions that a name gives are not always drawn.
Assays:
CDK2/cyclin A = target: T1, CDK2/cyclin A (Homo sapiens, UniProt P24941); assay: Inhibition of CDK2/Cyclin A retinoblastoma kinase activity; format: biochemical; settings: for Ki: apparent Ki, Rb fragment substrate, 25 μM ATP
T1 construct: made in house; host or cells: CDK2: insect cells (baculovirus); cyclin A: E. coli, then limited proteolysis
Procedure: (§1) Cyclin-dependent kinase activity was measured by quantifying the enzyme-catalyzed, time-dependent incorporation of radioactive phosphate from [^32P]ATP or [^33P]ATP into a protein substrate. […] Reactions were initiated with enzyme, incubated at 30° C., and terminated after 20 minutes by the addition of ethylenediaminetetraacetic acid (EDTA) to 250 mM. […] Radioactivity was quantified by exposing the dried membranes to a phosphorimager.
(§2) Apparent Ki values were measured by assaying enzyme activity in the presence of different inhibitor compound concentrations and subtracting the background radioactivity measured in the absence of enzyme.
A complex of CDK2 and proteolyzed cyclin A was prepared and purified by gel filtration. […] Ki values were measured as described above.

CDK4/cyclin D3 = target: T2, CDK4/cyclin D3 (Homo sapiens, UniProt P11802); assay: Inhibition of CDK4/Cyclin D retinoblastoma kinase activity; format: biochemical; settings: for Ki: apparent Ki, Rb fragment substrate, 25 μM ATP
T2 construct: made in house; host or cells: insect cells co-infected with baculovirus expression vectors
Procedure: as §1, §2
Phosphorylated Rb substrate was captured by microfiltration on a nitrocellulose membrane and quantified using a phosphorimager as described above. For measurement of tight-binding inhibitors, the enzyme complex concentration was lowered to 5 nM, and the assay duration was extended to 60 minutes, during which the time-dependence of product formation was linear.

HCT 116 cell line = assay: Inhibition of cell growth, MTT tetrazolium salt assay; format: cell-based
Procedure: Inhibition of cell growth was measured using the tetrazolium salt assay, which is based on the ability of viable cells to reduce 3-(4,5-dimethylthiazol-2-yl)-2,5-[2H]-diphenyltetrazolium bromide (MTT) to formazan (Mossman, Journal of Immunological Methods, vol. 65 (1983), pp. 55-58). The water-insoluble purple formazan product was then detected spectrophotometrically. The HCT 116 cell line was grown in 96-well plates. Cells were plated in the appropriate medium at a volume of 135 μl/well in McCoy's 5A Medium. Plates were incubated for four hours before addition of inhibitor compounds. Different concentrations of inhibitor compounds were added in 0.5% (v/v) dimethylsulfoxide (15 μL/well), and cells were incubated at 37° C. (5% CO2) for four to six days (depending on cell type). At the end of the incubation, MTT was added to a final concentration of 0.2 mg/mL, and cells were incubated for 4 hours more at 37° C. After centrifugation of the plates and removal of medium, the absorbence of the formazan (solubilized in dimethylsulfoxide) was measured at 540 nm. The concentration of inhibitor compound causing 50% inhibition of growth was determined from the linear portion of a semi-log plot of inhibitor concentration versus percentage inhibition. All results were compared to control cells treated only with 0.5% (v/v) dimethylsulfoxide.

T2 sequence (P11802 whole entry, the tested form may be a part): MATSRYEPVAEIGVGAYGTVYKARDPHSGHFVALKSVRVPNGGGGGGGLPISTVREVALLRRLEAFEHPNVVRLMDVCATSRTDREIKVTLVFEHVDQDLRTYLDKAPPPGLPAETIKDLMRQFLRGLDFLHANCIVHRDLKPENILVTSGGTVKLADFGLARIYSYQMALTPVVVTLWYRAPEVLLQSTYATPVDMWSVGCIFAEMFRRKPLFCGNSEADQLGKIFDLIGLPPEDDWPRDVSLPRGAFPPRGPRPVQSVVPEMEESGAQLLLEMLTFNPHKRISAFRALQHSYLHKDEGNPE
T2 sequence (P30281 whole entry partner, the tested form may be a part): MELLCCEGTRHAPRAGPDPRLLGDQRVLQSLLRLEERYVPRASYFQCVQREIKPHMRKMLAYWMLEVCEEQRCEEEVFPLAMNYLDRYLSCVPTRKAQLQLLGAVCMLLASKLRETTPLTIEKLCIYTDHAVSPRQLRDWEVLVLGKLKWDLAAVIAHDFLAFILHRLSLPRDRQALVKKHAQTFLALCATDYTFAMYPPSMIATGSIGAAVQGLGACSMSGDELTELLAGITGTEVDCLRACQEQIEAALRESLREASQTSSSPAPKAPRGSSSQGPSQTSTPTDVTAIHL

Ki (CDK2/cyclin A) [nM]	Ki (CDK4/cyclin D3) [nM]	IC50 (HCT 116 cell line; Homo sapiens, 144 h, HCT 116 cells, MTT, four to six days, read-out: IC50 HCT116) [nM]	inhibition of CDK2/A (entry in Ki column) (CDK2/cyclin A; @ 1 μm) [% @ 1 μm]	inhibition of CDK4/D3 (entry in Ki column) (CDK4/cyclin D3; @ 1 μm) [% @ 1 μm]	inhibition of HCT116 growth (entry in IC50 column) (HCT 116 cell line; @ 25 μm) [% @ 25 μm]	Structure (SMILES)
1000	1600					COc1ccc(Nc2nc3[nH]nc(-c4ccccc4)c3s2)cc1 [Compound 1, 5-(4-Methoxyphenylamino)-3-phenyl-1H-pyrazolo[4,5-d]thiazole Hydrobromic Acid Salt]
34	390	> 25000				NS(=O)(=O)c1ccc(Nc2nc3[nH]nc(-c4ccccc4)c3s2)cc1 [Compound 2, 3-Phenyl-5-(4-sulfonamidophenylamino)-1H-pyrazolo[4,5-d]thiazole Hydrobromic Acid Salt]
			41	18	16	NS(=O)(=O)c1ccc(Nc2nc3[nH]nc(-c4c(F)cccc4F)c3s2)cc1 [Compound 3, 3-(2,6-Difluorophenyl)-5-(4-sulfonamidophenylamino)-1H-pyrazolo [4,5-d]thiazole]
1600	170					CN1CCN(c2ccc(Nc3nc4[nH]nc(-c5ccccc5)c4s3)cc2)CC1 [Compound 4, 5-[4-(4-Methyl-piperazin-1-yl)-phenylamino]-3-phenyl-1H-pyrazolo[4,5-d]thiazole Hydrobromic Acid Salt]
